Measured values: patent US12129237B2, “Substituted diaminocarboxamide and diaminocarbonitrile pyrimidines, compositions thereof, and methods of treatment therewith” (SIGNAL PHARMACEUTICALS, LLC, priority 2011, dated 2024)

Target: T1, JNK1 (Homo sapiens, UniProt P45983)
T1 construct: purchased Carna Biosciences
Test: JNK1 biochemical assays (one or more of: time resolved fluorescence, Z'-LYTE Cascade, radioactive)
Settings: Table 2; JNK1 IC50 activity level; read-out: Act. Level

T1 sequence (P45983 whole entry): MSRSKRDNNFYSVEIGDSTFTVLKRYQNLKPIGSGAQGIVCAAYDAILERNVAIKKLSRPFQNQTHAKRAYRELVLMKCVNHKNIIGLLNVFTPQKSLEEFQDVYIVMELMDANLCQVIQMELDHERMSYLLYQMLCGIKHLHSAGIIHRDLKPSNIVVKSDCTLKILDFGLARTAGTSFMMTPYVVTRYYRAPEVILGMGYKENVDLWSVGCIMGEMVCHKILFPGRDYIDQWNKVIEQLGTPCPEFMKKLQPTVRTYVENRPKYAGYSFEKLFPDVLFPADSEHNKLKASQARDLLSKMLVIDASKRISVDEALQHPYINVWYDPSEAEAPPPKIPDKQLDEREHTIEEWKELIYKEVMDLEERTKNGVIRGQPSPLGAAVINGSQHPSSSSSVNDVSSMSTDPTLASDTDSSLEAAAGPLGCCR

**Q.** With `NC(=O)c1cnc(N2CCC(C(N)=O)CC2)nc1Nc1ccccc1` [Example B-37, 2-(4-carbamoylpiperidin-1-yl)-4-(phenylamino)pyrimidine-5-carboxamide] as the molecule, how does the IC50 read?
**A.** 1000 to 10000 nM

**Q.** `NC(=O)c1cnc(NC2CCCC2)nc1Nc1ccccc1` [Example B-44, 2-(cyclopentylamino)-4-(phenylamino)pyrimidine-5-carboxamide] was tested. Which IC50 did it give?
**A.** < 200 nM

**Q.** Which IC50 does the source give for `NC(=O)c1cnc(Nc2cccc(F)c2)nc1Nc1ccccc1` [Example B-24, 2-(3-fluorophenylamino)-4-(phenylamino)pyrimidine-5-carboxamide] here?
**A.** < 200 nM

**Q.** Which IC50 does the source give for `CCCNc1ncc(C(N)=O)c(Nc2ccccc2)n1` [Example B-68, 4-(phenylamino)-2-(propylamino)pyrimidine-5-carboxamide] here?
**A.** 200 to 800 nM

Same assay, conditions: Table 3; JNK1 IC50 activity level; read-out: Act. Level

**Q.** How did the IC50 turn out when `CN(C)C(=O)C(C)(C)C1CCC(Nc2ncc(C#N)c(N[C@@H]3CCC[C@H](O)C3)n2)CC1` (stereo partly drawn) [Example C-35, 2-(4-(5-cyano-4-((1R,3S)-3-hydroxycyclohexylamino)pyrimidin-2-ylamino)cyclohexyl)-N,N,2-trimethylpropanamide] was run?
**A.** 200 to 800 nM

**Q.** How did the IC50 turn out when `C[C@@H]1CC[C@@H](Nc2nc(N[C@H]3CC[C@H](O)CC3)ncc2C#N)C[C@H]1O` [Example C-48, 4-((1R,3R,4R)-3-hydroxy-4-methylcyclohexylamino)-2-((1r,4R)-4-hydroxycyclohexylamino) pyrimidine-5-carbonitrile] was run?
**A.** < 200 nM

Same assay, conditions: one or more of the JNK1 biochemical assays; read-out: Act. Level (JNK1 IC50 activity level)

**Q.** With `CC12CC(Nc3nc(N[C@H]4CC[C@H](OC5CC5)CC4)ncc3C(N)=O)(C1)C2` [Example 442, 2-((1r,4r)-4-cyclopropoxycyclohexylamino)-4-(3-methylbicyclo[1.1.1]pentan-1-ylamino)pyrimidine-5-carboxamide] as the molecule, how does the IC50 read?
**A.** < 200 nM

**Q.** Which IC50 does the source give for `CC[C@@H](Nc1nc(N[C@H]2CC[C@H](O)CC2)ncc1C(N)=O)C1CC1` [Example 385, 4-((R)-1-cyclopropylpropylamino)-2-((1r,4R)-4-hydroxycyclohexylamino)pyrimidine-5-carboxamide] here?
**A.** < 200 nM

**Q.** For `NC(=O)c1cnc(N[C@H]2CCCOC2)nc1NC12CC(C1)C2` [Example 405, (S)-4-(bicyclo[1.1.1]pentan-1-ylamino)-2-(tetrahydro-2H-pyran-3-ylamino)pyrimidine-5-carboxamide], which IC50 is on record?
**A.** < 200 nM

**Q.** `CO[C@H]1CC[C@H](Nc2ncc(C(N)=O)c(N[C@]3(C)CCC[C@H](O)C3)n2)CC1` [Example 215, 4-((1R,3S)-3-hydroxy-1-methylcyclohexylamino)-2-((1r,4R)-4-methoxycyclohexylamino)pyrimidine-5-carboxamide] was tested. Which IC50 did it give?
**A.** < 200 nM

**Q.** `CCO[C@H]1CC[C@H](Nc2ncc(C(N)=O)c(NC34CC(C)(C3)C4)n2)CC1` [Example 443, 2-((1r,4r)-4-ethoxycyclohexylamino)-4-(3-methylbicyclo[1.1.1]pentan-1-ylamino)pyrimidine-5-carboxamide] was tested. Which IC50 did it give?
**A.** < 200 nM

**Q.** `CC(C)(C)Nc1nc(N[C@H]2CCCOC2)ncc1C(N)=O` [Example 300, (S)-4-(tert-butylamino)-2-(tetrahydro-2H-pyran-3-ylamino)pyrimidine-5-carboxamide] was tested. Which IC50 did it give?
**A.** < 200 nM

**Q.** Which IC50 does the source give for `CN(C)C(=O)[C@H]1CC[C@H](Nc2ncc(C(N)=O)c(NC34CC(C3)C4)n2)CC1` [Example 418, 4-(bicyclo[1.1.1]pentan-1-ylamino)-2-((1r,4r)-4-(dimethylcarbamoyl)cyclohexylamino)pyrimidine-5-carboxamide] here?
**A.** < 200 nM

**Q.** For `CCC(C)(C)Nc1ncc(C(N)=O)c(N[C@@H]2CCC[C@](C)(O)C2)n1` [Example 350, 4-((1R,3S)-3-hydroxy-3-methylcyclohexylamino)-2-(tert-pentylamino)pyrimidine-5-carboxamide], which IC50 is on record?
**A.** < 200 nM

**Q.** With `C[C@@H]1CC[C@@H](Nc2nc(NC3(C4CC4)CC3)ncc2C(N)=O)C[C@H]1O` [Example 474, 2-(bi(cycloprop)ylamino)-4-((1R,3R,4R)-3-hydroxy-4-methylcyclohexylamino)pyrimidine-5-carboxamide] as the molecule, how does the IC50 read?
**A.** < 200 nM

**Q.** `CC(C)(Nc1nc(NC2CCOCC2)ncc1C(N)=O)C1CC1` [Example 467, 4-(2-cyclopropylpropan-2-ylamino)-2-(tetrahydro-2H-pyran-4-ylamino)pyrimidine-5-carboxamide] was tested. Which IC50 did it give?
**A.** < 200 nM

**Q.** How did the IC50 turn out when `CO[C@H]1CC[C@H](Nc2ncc(C(N)=O)c(N[C@@H](C)C3CCC3)n2)CC1` [Example 295, 4-((S)-1-cyclobutylethylamino)-2-((1r,4S)-4-methoxycyclohexylamino)pyrimidine-5-carboxamide] was run?
**A.** < 200 nM

**Q.** With `CO[C@H]1CC[C@H](Nc2ncc(C(N)=O)c(N[C@H](C)C(C)(C)C)n2)CC1` [Example 279, 4-((R)-3,3-dimethylbutan-2-ylamino)-2-((1r,4R)-4-methoxycyclohexylamino)pyrimidine-5-carboxamide] as the molecule, how does the IC50 read?
**A.** < 200 nM

**Q.** How did the IC50 turn out when `CO[C@H]1CC[C@H](Nc2ncc(C(N)=O)c(N[C@@H](C)C(C)C)n2)CC1` [Example 283, 2-((1r,4S)-4-methoxycyclohexylamino)-4-((S)-3-methylbutan-2-ylamino)pyrimidine-5-carboxamide] was run?
**A.** < 200 nM

**Q.** `CCO[C@H]1CC[C@H](Nc2ncc(C(N)=O)c(N[C@H]3C[C@@H](C)C3)n2)CC1` [Example 326, 2-((1r,4r)-4-ethoxycyclohexylamino)-4-((1s,3s)-3-methylcyclobutylamino)pyrimidine-5-carboxamide] was tested. Which IC50 did it give?
**A.** < 200 nM

**Q.** Which IC50 does the source give for `CCNc1ncc(C(N)=O)c(N[C@@H]2CC[C@@H](C)[C@H](O)C2)n1` [Example 494, 2-(ethylamino)-4-((1R,3R,4R)-3-hydroxy-4-methylcyclohexylamino)pyrimidine-5-carboxamide] here?
**A.** < 200 nM

**Q.** With `C[C@@H]1CC[C@@H](Nc2nc(NC3CCCC3)ncc2C(N)=O)C[C@H]1O` [Example 364, 2-(cyclopentylamino)-4-((1R,3R,4R)-3-hydroxy-4-methylcyclohexylamino)pyrimidine-5-carboxamide] as the molecule, how does the IC50 read?
**A.** < 200 nM

**Q.** Which IC50 does the source give for `NC(=O)c1cnc(N[C@H]2CC[C@H](OC(F)F)CC2)nc1N[C@@H]1CCC[C@@H]1CO` [Example 268, 2-((1r,4R)-4-(difluoromethoxy)cyclohexylamino)-4-((1R,2S)-2-(hydroxymethyl)cyclopentylamino)pyrimidine-5-carboxamide] here?
**A.** < 200 nM

**Q.** For `CC1(Nc2ncc(C(N)=O)c(N[C@@H]3CCC[C@](C)(O)C3)n2)CCC1` [Example 353, 4-((1R,3S)-3-hydroxy-3-methylcyclohexylamino)-2-(1-methylcyclobutylamino)pyrimidine-5-carboxamide], which IC50 is on record?
**A.** < 200 nM

**Q.** How did the IC50 turn out when `NC(=O)c1cnc(N[C@H]2CC[C@H](O)CC2)nc1NC1C2CC1C2` (stereo partly shown) [Example 453, 4-(bicyclo[1.1.1]pentan-2-ylamino)-2-((1r,4r)-4-hydroxycyclohexylamino)pyrimidine-5-carboxamide] was run?
**A.** < 200 nM

**Q.** How did the IC50 turn out when `CCNc1nc(N[C@H]2CC[C@H](O)CC2)ncc1C(N)=O` [Example 269, 4-(ethylamino)-2-((1r,4r)-4-hydroxycyclohexylamino)pyrimidine-5-carboxamide] was run?
**A.** < 200 nM

**Q.** Which IC50 does the source give for `CO[C@H]1CC[C@H](Nc2ncc(C(N)=O)c(N[C@H](C)C(C)C)n2)CC1` [Example 291, 2-((1r,4R)-4-methoxycyclohexylamino)-4-((R)-3-methylbutan-2-ylamino)pyrimidine-5-carboxamide] here?
**A.** < 200 nM

**Q.** Which IC50 does the source give for `C[C@@H](Nc1nc(NC23CCC(O)(CC2)C3)ncc1C(N)=O)C1CC1` [Example 450, (R)-4-(1-cyclopropylethylamino)-2-(4-hydroxybicyclo[2.2.1]heptan-1-ylamino)pyrimidine-5-carboxamide] here?
**A.** < 200 nM

**Q.** `CC(C)C(C)(C)Nc1ncc(C(N)=O)c(N[C@@H]2CC[C@@H](C)[C@H](O)C2)n1` [Example 366, 2-(2,3-dimethylbutan-2-ylamino)-4-((1R,3R,4R)-3-hydroxy-4-methylcyclohexylamino)pyrimidine-5-carboxamide] was tested. Which IC50 did it give?
**A.** < 200 nM

Same assay, conditions: tested in one or more of the JNK1 biochemical assays; read-out: Act. Level (JNK1 biochemical assay IC50 activity level)

**Q.** How did the IC50 turn out when `CCO[C@H]1CC[C@H](Nc2ncc(C(N)=O)c(N[C@H]3CCC[C@@H]3O)n2)CC1` [Example A-117, 2-((1r,4S)-4-ethoxycyclohexylamino)-4-((1S,2S)-2-hydroxycyclopentylamino)pyrimidine-5-carboxamide] was run?
**A.** < 200 nM

**Q.** Which IC50 does the source give for `NC[C@H]1CC[C@@H](Nc2nc(NC3CCCC3)ncc2C(N)=O)CC1` [Example A-131, 4-((1s,4s)-4-(aminomethyl)cyclohexylamino)-2-(cyclopentylamino)pyrimidine-5-carboxamide] here?
**A.** < 200 nM

**Q.** `COC[C@H]1CC[C@H](Nc2ncc(C(N)=O)c(N[C@H]3CCC[C@@H]3O)n2)CC1` [Example A-92, 4-((1S,2S)-2-hydroxycyclopentylamino)-2-((1r,4S)-4-(methoxymethyl)cyclohexylamino)pyrimidine-5-carboxamide] was tested. Which IC50 did it give?
**A.** < 200 nM

**Q.** With `C[C@@H]1CC[C@@H](Nc2nc(N[C@H]3CC[C@H](OCC(F)(F)F)CC3)ncc2C(N)=O)C[C@H]1O` [Example A-178, 4-((1R,3R,4R)-3-hydroxy-4-methylcyclohexylamino)-2-((1r,4R)-4-(2,2,2-trifluoroethoxy)cyclohexylamino)pyrimidine-5-carboxamide] as the molecule, how does the IC50 read?
**A.** < 200 nM

**Q.** How did the IC50 turn out when `C[C@]1(O)CCC[C@@H](Nc2nc(N[C@H]3CC[C@H](O)CC3)ncc2C(N)=O)C1` [Example A-177, 4-((1R,3S)-3-hydroxy-3-methylcyclohexylamino)-2-((1r,4R)-4-hydroxycyclohexylamino)pyrimidine-5-carboxamide] was run?
**A.** < 200 nM

**Q.** Which IC50 does the source give for `C[C@]1(O)CCC[C@@H](Nc2nc(N[C@H]3CC[C@H](OC(F)F)CC3)ncc2C(N)=O)C1` [Example A-170, 2-((1r,4R)-4-(difluoromethoxy)cyclohexylamino)-4-((1R,3S)-3-hydroxy-3-methylcyclohexylamino)pyrimidine-5-carboxamide] here?
**A.** < 200 nM

**Q.** How did the IC50 turn out when `NC(=O)c1cnc(N[C@H]2CC[C@H](O)CC2)nc1NC1CC1` [Example A-175, 4-(cyclopropylamino)-2-((1r,4r)-4-hydroxycyclohexylamino)pyrimidine-5-carboxamide] was run?
**A.** < 200 nM

**Q.** Which IC50 does the source give for `CO[C@H]1CC[C@H](Nc2ncc(C(N)=O)c(NC3CCCC3)n2)CC1` [Example A-190, 4-(cyclopentylamino)-2-((1r,4r)-4-methoxycyclohexylamino)pyrimidine-5-carboxamide] here?
**A.** < 200 nM
